{"source": "patent US9657273B2", "about": "“Method for suppressing teratoma formation via selective cell death induction in undifferentiated human-induced pluripotent stem cells” (Industry-University Cooperation Foundation Sogang University, priority 2012, dated 2017)", "key": {"[1]": {"system": "human induced pluripotent stem cells (iPS)", "assay": "Apoptosis-specific cell phenotype observed under microscope", "assay_type": "cell-based", "experimental": "Human induced pluripotent stem cells (iPS) derived from human aortic smooth muscle cells (HASMC) was subcultured in an ESC medium (DMEM/F/12 supplemented with a 20% KnockOutTM serum replacement, 0.1% gentamycin, 1% non-essential amino acids, 0.1% β-mercaptoethanol and 4 ng/ml bFGF) containing mouse embryonic fibroblasts (MEF) treated with mitomycin-C as supporting cells Lee, T. H., et al., (2010). Functional recapitulation of smooth muscle cells via induced pluripotent stem cells from human aortic smooth muscle cells. Circ Res 106, 120-128). For the pretreatment of quercetin and YM-155 of the present invention, iPS was cultured in a matrigel-coated 60 mm dish containing […]1 medium (29106, Stem Cell Technology) to induce them into smooth muscle cells (SMC). Human aortic smooth muscle cells (HASMC) and human induced pluripotent stem cells-derived differentiated cells, i.e., human induced pluripotent stem cells-derived smooth muscle cells (iPS-SMC) were cultured in an SMCM medium (ScienCell research laboratories, cat #1101) as described in the reference (Lee et al., 2010). In order to confirm the selective apoptosis of undifferentiated human induced pluripotent stem cells by quercetin, human induced pluripotent stem cells (iPS) derived from human aortic smooth muscle cells (HASMC), HASMC, smooth muscle cell no. 1 differentiated-derived from iPS (iPS-SMC-1), and smooth muscle cell no. […]"}, "HASMC and iPS-SMC3": {"system": "HASMC and iPS-SMC3", "assay": "α-SMA expression by immunofluorescence", "assay_type": "cell-based, human", "details": "50 μM quercetin, 24 hours", "experimental": "Human aortic smooth muscle cells (HASMC) and human induced pluripotent stem cells-derived differentiated cells, i.e., human induced pluripotent stem cells-derived smooth muscle cells (iPS-SMC) were cultured in an SMCM medium (ScienCell research laboratories, cat #1101) as described in the reference (Lee et al., 2010). As the first antibody used in IFA was anti-α-smooth muscle actin (α-SMA) (Dako Inc, Carpinteria, Calif.). Images were obtained using Axioscope A1 microscope (Carl Zeiss) and analyzed."}, "[2]": {"system": "undifferentiated induced pluripotent stem cells", "assay": "Selective cell death of undifferentiated induced pluripotent stem cells (summary statement)", "assay_type": "cell-based, human", "details": "treatment of induced pluripotent stem cells; differentiated cells not affected", "source_text": "The present inventors have made intensive efforts to develop a method for obtaining pure differentiated cells from induced pluripotent stem cells, and in particular, a method for obtaining only the pure differentiated cells by removing the possibility of a tumor formation by the undifferentiated induced pluripotent stem cells causing teratoma formation."}, "[3]": {"system": "mixed cell population of human induced pluripotent stem cells-smooth muscle cells", "assay": "Cleaved caspase-3 immunostaining in 1:1 mixed iPS / iPS-derived smooth muscle cell culture", "assay_type": "cell-based", "details": "50 μM quercetin, 24 hours; 1:1 mixture of iPS and iPS-derived SMC", "experimental": "The scale bar denotes 100 μm. […] In order to confirm the functions of smooth muscle cells differentiated-derived from human induced pluripotent stem cells, the population, which was cultured by mixing human induced pluripotent stem cells and the smooth muscle cells differentiated-derived from the human induced pluripotent stem cells in a 1:1 ratio, was treated with 50 μM quercetin for 24 hours, and examined the cleavage type caspase-3 positive population in the population of SMA-positive population or SSEA-4-positive population."}, "[4]": {"system": "human induced pluripotent stem cells (iPS)", "assay": "Immunoblotting of apoptosis marker proteins in cell lysate", "assay_type": "cell-based", "details": "50 μM quercetin, 24 hours", "source_text": "The antibodies used in the immunoblotting assay and anti-PARP1 (SC-7150) and anti-β-actin (SC-47778) were purchased from Santa Cruz Biotech Inc. (CA, USA). Additionally, anti-caspase-9 (Cat#9502) and anti-cleaved caspase-3 (Cat#9661) purchased from Cell Signaling Technology (Danvers, Mass., USA). In order to confirm the selective apoptosis of undifferentiated human induced pluripotent stem cells by quercetin, human induced pluripotent stem cells (iPS) derived from human aortic smooth muscle cells (HASMC), HASMC, smooth muscle cell no. 1 differentiated-derived from iPS (iPS-SMC-1), and smooth muscle cell no."}, "iPS-SMC1 and iPS-SMC3": {"system": "iPS-SMC1 and iPS-SMC3", "assay": "Measurement of intracellular calcium (Fura-2) after ATP or 75 mM K+", "assay_type": "cell-based, human", "details": "50 μM quercetin, 24 hours, then ATP or 75 mM potassium solution", "experimental": "In order to confirm the functions of the differentiated cells which were completely differentiated into smooth muscle cells, an intracellular calcium reaction was used. As described in the reference article (Lee et al., 2006), intracellular or extracellular calcium transients were induced using pharmacological reagents, ATP or 75 mM K^+ solution, and the values were numerized in fluorescence using a calcium indicator Fura-2 (Molecular Probes, Eugene, Oreg.), and imaged."}}, "note": "“Also recorded” adds a separate entry of the source."}
{"smiles": "O=c1c(O)c(-c2ccc(O)c(O)c2)oc2cc(O)cc(O)c12", "note": "[quercetin, 2-(3,4-dihydroxyphenyl)-3,5,7-trihydroxy-4H-chromen-4-one]", "values": [{"measurement": "apoptosis-specific phenotypic cell type", "setting": "[1]; 50 μM quercetin, 24 hours, iPS vs HASMC, iPS-SMC-1, iPS-SMC-3", "value": "exhibited a distinct apoptosis-specific cell phenotype; also recorded: distinctive apoptosis-specific phenotypic cell type was discovered"}, {"measurement": "degree of apoptosis (apoptosis-specific phenotypic cell type) at various concentrations", "setting": "[1]; various concentrations of quercetin (QC), iPS", "value": "concentration-dependent"}, {"measurement": "expression of α-SMA (immunofluorescence)", "setting": "HASMC and iPS-SMC3", "value": "the expression of α-SMA was confirmed"}, {"measurement": "selective killing of undifferentiated induced pluripotent stem cells", "setting": "[2]", "value": "only the undifferentiated induced pluripotent stem cells were effectively and selectively killed"}, {"measurement": "cleavage type caspase-3 positive population in SSEA-4-positive vs SMA-positive population", "setting": "[3]", "value": "excellent cleavage type caspase-3 positive population within the SSEA-4 positive population"}, {"measurement": "apoptosis marker proteins: cleavage of Parp-1, cleaved caspase-3 and caspase-9", "setting": "[4]", "value": "exhibited the expression of Parp-1 cleavage (T type), cleavage types of caspase-3 and caspase-9"}, {"measurement": "intracellular calcium response (function as smooth muscle cells)", "setting": "iPS-SMC1 and iPS-SMC3", "value": "confirmed the functions as smooth muscle cells"}]}
